According to patent publication US20120270238A1, “Peptides That Bind the Alpha-Fetoprotein (AFP) Receptor and Uses Thereof” (priority 2009, published 2012):
No end group written: not given here. *: point of attachment. FITC = O=C1OC2(c3ccc(O)cc3Oc3cc(O)ccc32)c2ccc(NC(=S)*)cc21

What was measured:
[1] = tested on: alpha-fetoprotein receptor present in MCF-7 cell extracts; assay: Competitive ELISA with biotin labeled AFP on MCF-7 cell extract; assay type: binding, human; conditions: for competition with biotin labeled AFP for the AFP receptor: qualitative, biotin labeled AFP 0.5 ug/ml; for inhibition (competition with AFP-biotin): constant AFP-biotin 0.5 μg/ml, plate coated with MCF-7 extract
Procedure: To see if the enzymatic digests were still biologically active, the enzymatic digests were used in a competitive based ELISA with whole AFP molecule labeled with biotin. The ability of the enzymatic digest dilutions to compete for the alpha-fetoprotein receptor present in MCF-7 cell extracts was determined using a constant 0.5 ug/ml of biotin labeled AFP. […] This fragment was run on a gradient tricine gel, transferred to a PVDF membrane and sent for N terminal sequencing. Results gave the amino acid (AA) sequence V-N-P-G . . . corresponding to AA 493 to 496 of Human AFP as published in Uniprot Data base (FIG. 2).
A plate can be coated with an extract of a cancer cell line known to have AFP receptors (for example, MCF-7). The plate is coated at 100 ug/ml total protein concentration and the peptide to be tested and AFP biotin is mixed with an initial peptide concentration of 250 μg/ml and subsequent half dilutions made. […] (FIG. 3). This assay was repeated with subsequent peptides synthesized in order to determine the smallest amino acid chain that would compete along with other peptides not in this region of the AFP molecule as well as from a different species.

[2] = tested on: cancer cell line that is known to have AFP receptors; assay: Binding of FITC labelled peptide to cancer cells; assay type: cell-based; conditions: FITC at the N terminal; fluorescence; qualitative
[3] = tested on: MCF-7 cells (human breast cancer cell line); assay: Uptake of FITC labelled peptide into MCF-7 cells; assay type: cell-based; conditions: FITC fluorescence; qualitative
Source text: FIGS. 10A and B show the results of this experiment. […] This experiment provides evidence that the peptides according to the present invention provide for intracellular delivery of bioactive agents to the interior of cells expressing AFPr, particularly cancer cells.

[4] = molecular target: alpha-fetoprotein receptor (AFP receptor) (human); assay: competition assay, plate coated with MCF-7 extract, AFP-biotin constant at 0.5 µg/ml

KQEFLIN [amino acids 549-555 of human AFP]
competition with biotin labeled AFP for the AFP receptor [1]: found to compete

HKDLCQAQGVALQTMKQEFLIN [Fragment 3, amino acids 534-555 of human AFP]
inhibition (competition with AFP-biotin) ([1]; peptide 7.8 μg/ml): 50%
inhibition (competition with AFP-biotin) ([1]; peptide 250 μg/ml): 85%
competition with biotin labeled AFP for the AFP receptor [1]: found to compete

FITC labeled Fragment 4: Fragment 4 synthesized with FITC at the N terminal ({FITC}-LQTMKQEFLIN)
binding to cancer cells [2]: demonstrated binding
uptake into MCF-7 human breast cancer cells [3]: uptake

B1: Fragment 3, … (peptide)
peptide: HKDLCQAQGVALQTMKQEFLIN
% inhibition at 7.8 µg/ml [4]: 50%
% inhibition at 250 µg/ml [4]: 85%
